Test results from US10399988B2, “4-aminopyrazolo[3,4-d]pyrimidinylazabicyclo derivatives and pharmaceutical composition comprising the same” (Daewoong Pharmaceutical Co., Ltd., priority 2016, dated 2019).

Assays:
ITK = target: T1, ITK (Homo sapiens, UniProt Q08881); assay: Inhibitory activity against ITK (ADP-Glo + ITK Kinase enzyme system kit); selectivity BTK vs. ITK; format: biochemical; details: for IC50: ITK enzyme 0.4 ng/uL, ATP 25 uM, luminescence, duplicate; for Selectivity (based on IC50): selectivity for the inhibitory activity of BTK vs. ITK, Equation 1
T1 construct: purchased Promega Corporation
T1 sequence (Q08881 1-620): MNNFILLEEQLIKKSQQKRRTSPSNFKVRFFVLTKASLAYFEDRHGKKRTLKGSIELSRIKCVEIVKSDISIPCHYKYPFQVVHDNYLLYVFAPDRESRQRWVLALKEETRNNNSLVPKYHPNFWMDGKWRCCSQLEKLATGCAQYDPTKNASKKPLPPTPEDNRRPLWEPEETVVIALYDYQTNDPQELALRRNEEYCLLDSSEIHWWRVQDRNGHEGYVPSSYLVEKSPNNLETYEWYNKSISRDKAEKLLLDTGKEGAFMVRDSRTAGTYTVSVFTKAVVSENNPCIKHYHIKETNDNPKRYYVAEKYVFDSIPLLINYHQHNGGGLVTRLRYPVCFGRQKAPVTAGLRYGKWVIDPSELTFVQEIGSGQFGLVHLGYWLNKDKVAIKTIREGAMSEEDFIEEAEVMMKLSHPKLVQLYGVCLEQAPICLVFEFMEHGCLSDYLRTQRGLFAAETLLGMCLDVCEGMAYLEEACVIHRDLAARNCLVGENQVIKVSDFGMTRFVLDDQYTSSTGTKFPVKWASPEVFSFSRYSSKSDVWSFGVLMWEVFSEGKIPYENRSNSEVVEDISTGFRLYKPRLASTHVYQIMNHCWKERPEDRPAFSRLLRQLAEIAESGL

BTK = BTK (Homo sapiens, UniProt Q06187); assay: Inhibitory activity against BTK (ADP-Glo + BTK Kinase enzyme system kit)
Sequence of BTK (Q06187 whole entry): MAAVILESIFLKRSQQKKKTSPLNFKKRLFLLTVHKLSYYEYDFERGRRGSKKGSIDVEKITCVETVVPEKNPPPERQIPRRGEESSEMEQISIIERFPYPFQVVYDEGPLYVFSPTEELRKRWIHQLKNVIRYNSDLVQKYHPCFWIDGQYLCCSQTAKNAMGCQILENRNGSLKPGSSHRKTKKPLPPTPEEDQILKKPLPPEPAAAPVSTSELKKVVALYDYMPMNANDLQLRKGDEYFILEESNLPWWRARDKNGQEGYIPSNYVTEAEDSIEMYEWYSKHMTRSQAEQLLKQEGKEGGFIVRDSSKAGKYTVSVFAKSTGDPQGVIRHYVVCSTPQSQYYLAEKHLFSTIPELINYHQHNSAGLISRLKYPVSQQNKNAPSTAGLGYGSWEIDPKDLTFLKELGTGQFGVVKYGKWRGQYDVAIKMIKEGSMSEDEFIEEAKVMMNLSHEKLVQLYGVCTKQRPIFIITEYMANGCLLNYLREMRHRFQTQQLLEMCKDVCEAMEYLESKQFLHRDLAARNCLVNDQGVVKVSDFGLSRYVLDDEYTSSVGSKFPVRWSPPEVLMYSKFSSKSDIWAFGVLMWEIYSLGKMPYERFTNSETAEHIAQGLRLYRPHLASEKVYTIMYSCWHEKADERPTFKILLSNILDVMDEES

SMILES	IC50 (ITK) [nM]	Selectivity (based on IC50) (ITK)	IC50 (BTK) [nM]
C#CC(=O)N1CC2CC1C(n1nc(-c3ccc(C(=O)Nc4ccccn4)cc3)c3c(N)ncnc31)C2 (stereo not drawn) [Ex. 4, 4-(4-amino-1-(2-propioloyl-2-azabicyclo[2.2.1]heptan-6-yl)-1H-pyrazolo[3,4-d]pyrimidin-3-yl)-N-(pyridin-2-yl)benzamide]	104	37.1	2.8
C#CC(=O)N1CC2CC1C(n1nc(-c3ccc(C(=O)Nc4ccccc4)cc3)c3c(N)ncnc31)C2 (stereo not drawn) [Ex. 17, 4-(4-amino-1-(2-propioloyl-2-azabicyclo[2.2.1]heptan-6-yl)-1H-pyrazolo[3,4-d]pyrimidin-3-yl)-N-phenylbenzamide]	> 1000	>212.8	4.7
N#CC(=CC1CC1)C(=O)N1C[C@@H]2C[C@@H]1[C@@H](n1nc(-c3ccc(C(=O)Nc4ccccn4)cc3F)c3c(N)ncnc31)C2 [Ex. 82, 4-(4-amino-1-((1R,4R,6S)-2-(2-cyano-3-cyclopropylacryloyl)-2-azabicyclo[2.2.1]heptan-6-yl)-1H-pyrazolo[3,4-d]pyrimidin-3-yl)-3-fluoro-N-(pyridin-2-yl)benzamide]	> 200	55.6	3.6
C=CC(=O)N1CC2CC1C(n1nc(-c3ccc(C(=O)Nc4cnccn4)cc3)c3c(N)ncnc31)C2 (stereo not drawn) [Ex. 53, 4-(1-(2-acryloyl-2-azabicyclo[2.2.1]heptan-6-yl)-4-amino-1H-pyrazolo[3,4-d]pyrimidin-3-yl)-N-(pyrazin-2-yl)benzamide]	> 1000	>370.3	2.7
C=CC(=O)N1CC2CC1C(n1nc(-c3ccc(Oc4cccc(N(C)C)c4)cc3)c3c(N)ncnc31)C2 (stereo not drawn) [Ex. 42, 1-(6-(4-amino-3-(4-(3-(dimethylamino)phenoxy)phenyl)-1H-pyrazolo[3,4-d]pyrimidin-1-yl)-2-azabicyclo[2.2.1]heptan-2-yl)prop-2-en-1-one]	> 500	>147	3.4
C=CC(=O)N1CC2CC1C(n1nc(-c3ccc(Oc4ccccc4)cc3F)c3c(N)ncnc31)C2 (stereo not drawn) [Ex. 35, 1-(6-(4-amino-3-(2-fluoro-4-phenoxyphenyl)-1H-pyrazolo[3,4-d]pyrimidin-1-yl)-2-azabicyclo[2.2.1]heptan-2-yl)prop-2-en-1-one]	132	60.0	2.2
C#CC(=O)N1CC2CC1C(n1nc(-c3ccc(Oc4ccccc4)cc3)c3c(N)ncnc31)C2 (stereo not drawn) [Ex. 2, 1-(6-(4-amino-3-(4-phenoxyphenyl)-1H-pyrazolo[3,4-d]pyrimidin-1-yl)-2-azabicyclo[2.2.1]heptan-2-yl)prop-2-yn-1-one]	26.3	32.9	0.8
C=CC(=O)N1C[C@@H]2C[C@@H]1[C@@H](n1nc(-c3ccc(C(=O)Nc4ccccn4)cc3)c3c(N)ncnc31)C2 [Ex. 69, 4-(1-((1R,4R,6S)-2-acryloyl-2-azabicyclo[2.2.1]heptan-6-yl)-4-amino-1H-pyrazolo[3,4-d]pyrimidin-3-yl)-N-(pyridin-2-yl)benzamide]	235	181.2	1.3
C#CC(=O)N1CC2CC1C(n1nc(-c3cccc(Oc4ccccc4)c3)c3c(N)ncnc31)C2 (stereo not drawn) [Ex. 15, 1-(6-(4-amino-3-(3-phenoxyphenyl)-1H-pyrazolo[3,4-d]pyrimidin-1-yl)-2-azabicyclo[2.2.1]heptan-2-yl)prop-2-yn-1-one]	123	58.3	2.1
C=CC(=O)N1C[C@@H]2C[C@H]1[C@@H](n1nc(-c3ccc(C(=O)Nc4cc(F)ccn4)cc3)c3c(N)ncnc31)C2 [Ex. 72, 4-(1-((1S,4R,6S)-2-acryloyl-2-azabicyclo[2.2.1]heptan-6-yl)-4-amino-1H-pyrazolo[3,4-d]pyrimidin-3-yl)-N-(4-fluoropyridin-2-yl)benzamide]	47.9	31.9	1.5
C=CC(=O)N1CC2CC1CC2n1nc(-c2ccc(Oc3ccccc3)cc2)c2c(N)ncnc21 (stereo not drawn) [Ex. 12, 1-(5-(4-amino-3-(4-phenoxyphenyl)-1H-pyrazolo[3,4-d]pyrimidin-1-yl)-2-azabicyclo[2.2.1]heptan-2-yl)prop-2-en-1-one]	> 1000	>303.3	3.3
C=CC(=O)N1CC2CC1C(n1nc(-c3ccc(C(=O)Nc4ccccn4)cc3)c3c(N)ncnc31)C2 (stereo not drawn) [Ex. 49, 4-(1-(2-acryloyl-2-azabicyclo[2.2.1]heptan-6-yl)-4-amino-1H-pyrazolo[3,4-d]pyrimidin-3-yl)-N-(pyridin-2-yl)benzamide]	> 500	>142.9	3.5
C=CC(=O)N1CC2CC1C(n1nc(-c3ccc(S(=O)(=O)Nc4ccccc4)cc3)c3c(N)ncnc31)C2 (stereo not drawn) [Ex. 54, 4-(1-(2-acryloyl-2-azabicyclo[2.2.1]heptan-6-yl)-4-amino-1H-pyrazolo[3,4-d]pyrimidin-3-yl)-N-phenylbenzenesulfonamide]	> 1000	>454.5	2.2
N#CC(=CC1CC1)C(=O)N1C[C@@H]2C[C@@H]1[C@@H](n1nc(-c3ccc(C(=O)Nc4cc(F)ccn4)cc3F)c3c(N)ncnc31)C2 [Ex. 83, 4-(4-amino-1-((1R,4R,6S)-2-(2-cyano-3-cyclopropylacryloyl)-2-azabicyclo[2.2.1]heptan-6-yl)-1H-pyrazolo[3,4-d]pyrimidin-3-yl)-3-fluoro-N-(4-fluoropyridin-2-yl)benzamide]	229	81.7	2.8
C=CC(=O)N1C[C@@H]2C[C@H]1[C@@H](n1nc(-c3ccc(C(=O)Nc4ccccn4)cc3Cl)c3c(N)ncnc31)C2 [Ex. 80, 4-(1-((1S,4R,6S)-2-acryloyl-2-azabicyclo[2.2.1]heptan-6-yl)-4-amino-1H-pyrazolo[3,4-d]pyrimidin-3-yl)-3-chloro-N-(pyridin-2-yl)benzamide]	32.1	26.8	1.2
C=CC(=O)N1C[C@@H]2C[C@@H]1[C@@H](n1nc(-c3ccc(C(=O)Nc4ccccn4)cc3F)c3c(N)ncnc31)C2 [Ex. 85, 4-(1-((1R,4R,6S)-2-acryloyl-2-azabicyclo[2.2.1]heptan-6-yl)-4-amino-1H-pyrazolo[3,4-d]pyrimidin-3-yl)-3-fluoro-N-(pyridin-2-yl)benzamide]	60.6	37.9	1.6
C=CC(=O)N1CC2CC1C(n1nc(-c3ccc(C(=O)Nc4cc(F)ccn4)cc3)c3c(N)ncnc31)C2 (stereo not drawn) [Ex. 67, 4-(1-(2-acryloyl-2-azabicyclo[2.2.1]heptan-6-yl)-4-amino-1H-pyrazolo[3,4-d]pyrimidin-3-yl)-N-(4-fluoropyridin-2-yl)benzamide]	54.1	108.2	0.5
C=CC(=O)N1CC2CC1C(n1nc(-c3ccc(Oc4cccc(F)c4)cc3)c3c(N)ncnc31)C2 (stereo not drawn) [Ex. 34, 1-(6-(4-amino-3-(4-(3-fluorophenoxy)phenyl)-1H-pyrazolo[3,4-d]pyrimidin-1-yl)-2-azabicyclo[2.2.1]heptan-2-yl)prop-2-en-1-one]	308	69.9	4.4
C=CC(=O)N1CC2CC1C(n1nc(-c3ccc(C(=O)Nc4cccc(Cl)c4)cc3)c3c(N)ncnc31)C2 (stereo not drawn) [Ex. 48, 4-(1-(2-acryloyl-2-azabicyclo[2.2.1]heptan-6-yl)-4-amino-1H-pyrazolo[3,4-d]pyrimidin-3-yl)-N-(3-chlorophenyl)benzamide]	401	85.3	4.7
C=CC(=O)N1CC2CC1C(n1nc(-c3ccc(Oc4cccc(OC)c4)cc3)c3c(N)ncnc31)C2 (stereo not drawn) [Ex. 41, 1-(6-(4-amino-3-(4-(3-methoxyphenoxy)phenyl)-1H-pyrazolo[3,4-d]pyrimidin-1-yl)-2-azabicyclo[2.2.1]heptan-2-yl)prop-2-en-1-one]	> 1000	>222.2	4.5
C=CC(=O)N1C[C@@H]2C[C@H]1[C@@H](n1nc(-c3ccc(C(=O)Nc4ccccn4)cc3OC)c3c(N)ncnc31)C2 [Ex. 81, 4-(1-((1S,4R,6S)-2-acryloyl-2-azabicyclo[2.2.1]heptan-6-yl)-4-amino-1H-pyrazolo[3,4-d]pyrimidin-3-yl)-3-methoxy-N-(pyridin-2-yl)benzamide]	> 200	>200	1
C=CC(=O)N1CC2CC1C(n1nc(-c3ccc(S(=O)(=O)c4ccccc4)cc3)c3c(N)ncnc31)C2 (stereo not drawn) [Ex. 32, 1-(6-(4-amino-3-(4-(phenylsulfonyl)phenyl)-1H-pyrazolo[3,4-d]pyrimidin-1-yl)-2-azabicyclo[2.2.1]heptan-2-yl)prop-2-en-1-one]	> 1000	>250	4
C=CC(=O)N1CC2CCC1C(n1nc(-c3ccc(Oc4ccccc4)cc3)c3c(N)ncnc31)C2 (stereo not drawn) [Ex. 59, 1-(6-(4-amino-3-(4-phenoxyphenyl)-1H-pyrazolo[3,4-d]pyrimidin-1-yl)-2-azabicyclo[2.2.2]octan-2-yl)prop-2-en-1-one]	110	39.1	2.8
